System: reconstructed epidermes SKINETHIC® integrating melanocytes (type IV)
Assay: Assay of the melanin on reconstructed epidermes integrating melanocytes
Assay type: cell-based, human
Protocol: The cells are grown for 10 days at the air/liquid interface, the growth medium is being changed daily. The thus formed type IV epidermis (=negroid) were used from the 10th day of culture. […] Marine cells obtained in Examples 1 and 2. The assessment of the synthesis of intracellular melanin (qualitative study) was carried out by spectrometry at 475 nm after that the cells were suspended, then dissolved in NaOH (1N) and dimethyl sulfoxide for 30 minutes.

For O=c1cc(CO)occ1O [Positive control, kojic acid], the “Melanin, % vs negative control” value (change of the rate of melanin compared to negative control) was −44% and the “Melanin, Absorbance (475 nm)” value (intracellular melanin, type IV epidermes, duplicate) was 0.09 ± 0.01.
